Target: Angiopoietin-1 receptor (Homo sapiens, UniProt Q02763)
Assay: D3R2025
Excerpt: D3R2025

Chain of Angiopoietin-1 receptor (Q02763 whole entry): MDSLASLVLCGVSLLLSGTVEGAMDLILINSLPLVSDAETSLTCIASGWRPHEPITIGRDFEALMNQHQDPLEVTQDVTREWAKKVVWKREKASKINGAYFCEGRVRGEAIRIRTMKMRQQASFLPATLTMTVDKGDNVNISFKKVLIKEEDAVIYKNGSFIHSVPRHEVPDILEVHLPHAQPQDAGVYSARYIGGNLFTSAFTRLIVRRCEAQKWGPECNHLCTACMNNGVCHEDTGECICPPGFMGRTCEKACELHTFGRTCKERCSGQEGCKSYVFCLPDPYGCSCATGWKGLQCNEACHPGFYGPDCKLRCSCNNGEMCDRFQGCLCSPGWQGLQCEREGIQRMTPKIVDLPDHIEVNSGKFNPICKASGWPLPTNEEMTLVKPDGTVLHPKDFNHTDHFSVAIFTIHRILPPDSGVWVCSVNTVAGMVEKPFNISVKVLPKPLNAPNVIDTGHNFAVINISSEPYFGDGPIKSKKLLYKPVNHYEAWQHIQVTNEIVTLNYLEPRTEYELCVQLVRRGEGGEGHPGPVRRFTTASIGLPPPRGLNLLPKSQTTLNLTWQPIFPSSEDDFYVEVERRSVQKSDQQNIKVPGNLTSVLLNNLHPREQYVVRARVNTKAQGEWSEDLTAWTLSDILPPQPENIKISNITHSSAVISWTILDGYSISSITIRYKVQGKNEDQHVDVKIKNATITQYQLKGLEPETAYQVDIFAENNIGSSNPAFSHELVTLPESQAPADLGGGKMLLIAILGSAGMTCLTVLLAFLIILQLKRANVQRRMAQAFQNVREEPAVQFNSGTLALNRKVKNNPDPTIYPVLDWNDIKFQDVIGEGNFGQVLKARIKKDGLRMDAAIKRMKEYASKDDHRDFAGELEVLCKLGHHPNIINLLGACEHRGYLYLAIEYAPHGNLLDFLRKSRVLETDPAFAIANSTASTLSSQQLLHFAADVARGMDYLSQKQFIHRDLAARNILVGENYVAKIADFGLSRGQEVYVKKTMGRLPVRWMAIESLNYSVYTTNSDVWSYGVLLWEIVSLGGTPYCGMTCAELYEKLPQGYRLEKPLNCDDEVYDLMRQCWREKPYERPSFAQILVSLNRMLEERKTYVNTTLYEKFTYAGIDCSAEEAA

| Kd | Compound |
| --- | --- |
| 10 µM | CSc1nccc(-c2c(-c3ccc(F)cc3)ncn2CCCN2CCOCC2)n1 |
| 10 µM | CNc1nccc(-c2c(-c3ccc(F)cc3)ncn2CCCN2CCOCC2)n1 |
| 10 µM | Cc1cc(-c2c(-c3ccc(F)cc3)ncn2CCCN2CCOCC2)nc(N)n1 |
| 0.024 µM | CC(C)c1nc(-c2ccc(F)c(NS(=O)(=O)c3c(F)cccc3F)c2)c(-c2ccnc(Nc3ccc(N4CCOCC4)nc3)n2)s1 |
| 10 µM | O=C(Nc1cccc(-c2nn3ncccc3c2-c2ccnc(Nc3cccnc3)n2)c1)c1c(F)cccc1F |
| 10 µM | CCOC(=O)N1CCC(n2cnc(-c3ccc(F)cc3)c2-c2ccnc(N)n2)CC1 [4-[5-(2-Amino-pyrimidin-4-yl)-4-(4-fluoro-phenyl)-imidazol-1-yl]-piperidine-1-carboxylic acid ethyl ester] |
| 10 µM | COc1nccc(-c2c(-c3ccc(F)cc3)ncn2CCCN2CCOCC2)n1 [4-{3-[4-(4-Fluoro-phenyl)-5-(2-methoxy-pyrimidin-4-yl)-imidazol-1-yl]-propyl}-morpholine] |
| 10 µM | Nc1nccc(-c2c(-c3ccc(F)cc3)ncn2C2CCN(CC(F)(F)F)CC2)n1 [4-{5-(4-Fluoro-phenyl)-3-[1-(2,2,2-trifluoro-ethyl)-piperidin-4-yl]-3H-imidazol-4-yl}-pyrimidin-2-ylamine] |
| 0.0034 µM | CC(C)c1nc(-c2cccc(NS(=O)(=O)c3c(F)cccc3F)c2F)c(-c2ccnc(Nc3ccc(N4CCOCC4)nc3)n2)s1 [D3RKN_29] |
| 2.5 µM | O=C(Nc1cccc(-c2nn3ncccc3c2-c2ccnc(Nc3ccccc3)n2)c1)c1c(F)cccc1F [D3RKN_56] |
| 0.093 µM | CC(=O)N1CCN(c2ccc(Nc3nccc(-c4sc(C(C)C)nc4-c4cccc(NS(=O)(=O)c5cccc(Cl)c5)c4)n3)cn2)CC1 [D3RKN_98] |
| 0.092 µM | CC(C)c1nc(-c2cccc(NS(=O)(=O)c3ccccc3)c2)c(-c2ccnc(Nc3ccc4c(c3)CN(C)CC4)n2)s1 [D3RKN_117] |
| 0.027 µM | CC(C)c1nc(-c2cccc(NS(=O)(=O)c3c(F)cccc3F)c2)c(-c2ccnc(Nc3ccc(N4CCOCC4)nc3)n2)s1 [D3RKN_118] |
| 10 µM | O=C(Nc1cccc(-c2nn3ncccc3c2-c2ccnc(Nc3cccc(C(F)(F)F)c3)n2)c1)c1c(F)cccc1F [D3RKN_119] |
| 3.2 µM | CCc1nc(-c2cccc(N(C)S(=O)(=O)c3ccccc3)c2)c(-c2ccnc(Nc3ccc(N4CCN(C(C)=O)CC4)nc3)n2)s1 [D3RKN_120] |
| 0.2 µM | COc1cc(Nc2nccc(-c3c(-c4cccc(NC(=O)c5c(F)cccc5F)c4)nn4ncccc34)n2)cc(OC)c1OC [D3RKN_124] |
| 10 µM | CCNc1nccc(-c2c(-c3ccc(F)cc3)ncn2C2CCN(C)CC2)n1 [Ethyl-{4-[5-(4-fluoro-phenyl)-3-(1-methyl-piperidin-4-yl)-3H-imidazol-4-yl]-pyrimidin-2-yl}-amine] |
| 10 µM | CNc1nccc(-c2c(-c3ccc(F)cc3)ncn2C2CCN(C)CC2)n1 [{4-[5-(4-Fluoro-phenyl)-3-(1-methyl-piperidin-4-yl)-3H-imidazol-4-yl]-pyrimidin-2-yl}-methyl-amine] |

Source: BindingDB's records for doi:10.7270/Q2WH2TT9 (D3R/Abbott, 2020)
